For this test, the target named is T1, PDE4B (Mus musculus, UniProt Q8VBU5).
T1 sequence (Q8VBU5 1-721): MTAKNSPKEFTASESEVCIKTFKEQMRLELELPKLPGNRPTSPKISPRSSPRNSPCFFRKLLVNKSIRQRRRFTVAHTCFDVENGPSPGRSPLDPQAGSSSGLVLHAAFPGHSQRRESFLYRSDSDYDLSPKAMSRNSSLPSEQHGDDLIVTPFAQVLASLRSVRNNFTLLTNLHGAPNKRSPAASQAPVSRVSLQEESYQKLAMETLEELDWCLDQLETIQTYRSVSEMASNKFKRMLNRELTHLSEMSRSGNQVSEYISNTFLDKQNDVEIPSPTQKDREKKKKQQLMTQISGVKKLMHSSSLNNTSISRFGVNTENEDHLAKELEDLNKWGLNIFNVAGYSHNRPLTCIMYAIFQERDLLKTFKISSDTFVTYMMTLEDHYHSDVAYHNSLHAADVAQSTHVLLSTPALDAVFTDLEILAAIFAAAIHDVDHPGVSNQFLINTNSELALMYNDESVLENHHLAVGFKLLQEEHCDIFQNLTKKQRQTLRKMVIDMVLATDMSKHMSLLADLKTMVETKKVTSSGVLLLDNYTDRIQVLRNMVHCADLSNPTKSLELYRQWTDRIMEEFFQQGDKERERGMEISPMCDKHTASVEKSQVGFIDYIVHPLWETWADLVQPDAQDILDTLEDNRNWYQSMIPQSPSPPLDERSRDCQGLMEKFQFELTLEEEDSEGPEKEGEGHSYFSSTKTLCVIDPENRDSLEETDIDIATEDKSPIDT
Kind of test: PDE4B inhibition IC50, selectivity comparison (assay details not given). Type of test: biochemical.

In general, IC50 refers to the concentration at which inhibition is half-maximal. Low values mean greater potency in that assay, high ones weaker potency in that assay. `O=C(O)Cc1ccc(Cc2cc(-c3cccc(Cl)c3)nc(C(F)(F)F)c2)cc1` [BPN14770]: the IC50 worked out at 2120 nM.

The values above are taken from article PMC5677090, “Multiple Behavior Phenotypes of the Fragile-X Syndrome Mouse Model Respond to Chronic Inhibition of Phosphodiesterase-4D (PDE4D)” (Scientific Reports, 2017).
